Measurements reported in ChEMBL document CHEMBL1153009, “Synthesis and evaluation of structurally constrained imidazolidin derivatives as potent dipeptidyl peptidase IV inhibitors” (Eur J Med Chem, 2009).

Key:
[1] = target: Dipeptidyl peptidase 9 (Homo sapiens, UniProt Q86TI2)
[2] = target: Dipeptidyl peptidase 2 (Homo sapiens, UniProt Q9UHL4); experiment: Inhibition of human recombinant DPP7 expressed in baculovirus-infected Sf9 cells by fluorescence plate reader method

Dipeptidyl peptidase 9, sequence (Q86TI2 whole entry): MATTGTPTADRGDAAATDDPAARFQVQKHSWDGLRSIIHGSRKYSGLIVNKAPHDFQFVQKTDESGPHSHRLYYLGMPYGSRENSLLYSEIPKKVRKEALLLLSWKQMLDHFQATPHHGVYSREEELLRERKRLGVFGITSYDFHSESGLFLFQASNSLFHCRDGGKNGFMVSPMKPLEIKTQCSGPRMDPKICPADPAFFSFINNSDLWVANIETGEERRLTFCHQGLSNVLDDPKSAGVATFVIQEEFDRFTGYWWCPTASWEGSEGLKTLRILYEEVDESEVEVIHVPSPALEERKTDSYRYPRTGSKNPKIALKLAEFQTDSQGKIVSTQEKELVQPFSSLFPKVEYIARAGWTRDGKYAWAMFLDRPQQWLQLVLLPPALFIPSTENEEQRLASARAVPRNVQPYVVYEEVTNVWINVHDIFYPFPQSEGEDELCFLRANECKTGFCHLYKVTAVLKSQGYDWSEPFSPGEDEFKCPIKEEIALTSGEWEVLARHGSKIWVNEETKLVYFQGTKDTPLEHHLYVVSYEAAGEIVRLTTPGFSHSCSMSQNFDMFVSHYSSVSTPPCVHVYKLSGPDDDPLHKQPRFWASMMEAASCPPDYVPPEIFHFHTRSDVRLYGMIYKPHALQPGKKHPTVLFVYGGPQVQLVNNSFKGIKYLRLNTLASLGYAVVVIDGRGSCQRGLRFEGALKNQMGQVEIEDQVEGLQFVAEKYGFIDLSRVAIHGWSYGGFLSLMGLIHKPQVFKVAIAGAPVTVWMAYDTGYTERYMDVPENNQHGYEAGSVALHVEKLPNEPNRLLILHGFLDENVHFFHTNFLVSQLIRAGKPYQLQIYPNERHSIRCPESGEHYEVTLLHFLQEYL

IC50 [1]: > 100 µM
IC50 [2]: > 100 µM
SMILES: COc1ccc(N2CCN(CCNCC(=O)N3CCCC3C#N)C2=O)cc1OC (single isomer, unassigned)
